From the supplement of paper PMC10307832

Key:
Experiment in all cases: relative viability (nuclei count vs DMSO), 5 days (fraction); higher = more cells survive
Fedratinib + Pictilisib = compound: Cc1cnc(Nc2ccc(OCCN3CCCC3)cc2)nc1Nc1cccc(S(=O)(=O)NC(C)(C)C)c1 [Fedratinib] + CS(=O)(=O)N1CCN(Cc2cc3nc(-c4cccc5[nH]ncc45)nc(N4CCOCC4)c3s2)CC1 [Pictilisib] (partner 1 µM)
Method in brief: (§1)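 Relative viability divides the nuclei count in treated wells by that in vehicle wells. Lung cancer cell lines were seeded in 1536-well plates, dosed by pin tool the next day, and fixed and stained after 5 days in one step with final 0.05% Triton X-100, 1% formaldehyde and 1 ug/ml Hoechst. Dosing was a single drug or a fixed anchor-drug dose plus five library-drug doses (not always all listed) in √10 steps, and values are medians of duplicate plates imaged at 4×.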

GW-2580 + Palbociclib = compound: COC1=CC=C(C=C1)COC2=C(C=C(C=C2)CC3=CN=C(N=C3N)N)OC [GW-2580] + CC(=O)c1c(C)c2cnc(Nc3ccc(N4CCNCC4)cn3)nc2n(C2CCCC2)c1=O [Palbociclib] (partner 0.5 µM)
Method in brief: as §1

Fedratinib + Olaparib = compound: Cc1cnc(Nc2ccc(OCCN3CCCC3)cc2)nc1Nc1cccc(S(=O)(=O)NC(C)(C)C)c1 [Fedratinib] + O=C(c1cc(Cc2n[nH]c(=O)c3ccccc23)ccc1F)N1CCN(C(=O)C2CC2)CC1 [Olaparib] (partner 8 µM)
Method in brief: as §1

Fedratinib + Trametinib = compound: Cc1cnc(Nc2ccc(OCCN3CCCC3)cc2)nc1Nc1cccc(S(=O)(=O)NC(C)(C)C)c1 [Fedratinib] + CC(=O)Nc1cccc(-n2c(=O)n(C3CC3)c(=O)c3c(Nc4ccc(I)cc4F)n(C)c(=O)c(C)c32)c1 [Trametinib] (partner 0.02 µM)
Method in brief: as §1

GW-2580 + Foretinib = compound: COC1=CC=C(C=C1)COC2=C(C=C(C=C2)CC3=CN=C(N=C3N)N)OC [GW-2580] + COc1cc2c(Oc3ccc(NC(=O)C4(C(=O)Nc5ccc(F)cc5)CC4)cc3F)ccnc2cc1OCCCN1CCOCC1 [Foretinib] (partner 0.25 µM)
Method in brief: as §1

Fedratinib + Palbociclib = compound: Cc1cnc(Nc2ccc(OCCN3CCCC3)cc2)nc1Nc1cccc(S(=O)(=O)NC(C)(C)C)c1 [Fedratinib] + CC(=O)c1c(C)c2cnc(Nc3ccc(N4CCNCC4)cn3)nc2n(C2CCCC2)c1=O [Palbociclib] (partner 0.5 µM)
Method in brief: as §1

Row | Cell Line | relative viability (Fedratinib + Pictilisib; first compound 0.1 µM) | relative viability (Fedratinib + Pictilisib; first compound 0.3162 µM) | relative viability (Fedratinib + Pictilisib; first compound 1 µM) | relative viability (GW-2580 + Palbociclib; first compound 0.08 µM) | relative viability (GW-2580 + Palbociclib; first compound 0.8 µM) | relative viability (GW-2580 + Palbociclib; first compound 2.53 µM) | relative viability (GW-2580 + Palbociclib; first compound 8 µM) | relative viability (Fedratinib + Olaparib; first compound 0.1 µM) | relative viability (Fedratinib + Olaparib; first compound 0.3162 µM) | relative viability (Fedratinib + Olaparib; first compound 1 µM) | relative viability (Fedratinib + Trametinib; first compound 0.1 µM) | relative viability (Fedratinib + Trametinib; first compound 0.3162 µM) | relative viability (Fedratinib + Trametinib; first compound 1 µM) | relative viability (GW-2580 + Foretinib; first compound 0.08 µM) | relative viability (GW-2580 + Foretinib; first compound 0.8 µM) | relative viability (GW-2580 + Foretinib; first compound 2.53 µM) | relative viability (GW-2580 + Foretinib; first compound 8 µM) | relative viability (Fedratinib + Palbociclib; first compound 0.1 µM) | relative viability (Fedratinib + Palbociclib; first compound 0.3162 µM) | relative viability (Fedratinib + Palbociclib; first compound 1 µM)
1 | HCC-15 | 0.581 | 0.713 | 0.28 | 0.82 | 0.814 | 0.706 | 0.56 | 0.732 | 0.676 | 0.806 | 0.393 | 0.365 | 0.357 | 1.06 | 1.09 | 1.01 | 0.958 | 0.664 | 0.708 | 0.636
2 | HCC-44 | 0.407 | 0.623 | 0.465 | 0.98 | 1.02 | 0.961 | 0.967 | 0.928 | 0.945 | 0.964 | 1.15 | 1.01 | 1.11 | – | – | – | – | 0.95 | 0.968 | 0.983
3 | HCC-78 | 0.227 | – | 0.226 | 0.459 | 0.522 | – | 0.5 | 0.847 | 0.87 | 0.827 | 0.677 | 0.776 | 0.938 | 0.524 | 0.605 | 0.513 | 0.497 | 0.47 | 0.443 | 0.476
4 | HCC-366 | 0.136 | 0.0976 | 0.19 | 0.388 | 0.475 | 0.488 | 0.405 | 0.525 | 0.325 | 0.345 | 0.363 | 0.36 | 0.257 | 1 | 0.879 | 0.964 | 0.791 | 0.603 | 0.355 | 0.315
5 | HCC-827 | 0.99 | 0.927 | 0.941 | 0.571 | 0.531 | 0.479 | 0.467 | 0.606 | 0.528 | 0.749 | 0.515 | 0.567 | 0.503 | 1.13 | 1.02 | 1.02 | 0.905 | 0.454 | 0.485 | 0.475
6 | HOP-62 | 0.809 | 0.709 | 0.531 | 0.584 | 0.438 | 0.481 | 0.515 | 0.712 | 0.352 | 0.518 | 0.355 | 0.392 | 0.393 | 1.27 | 1.25 | 1.02 | 1.11 | 0.437 | 0.426 | 0.393
7 | IA-LM | 0.26 | 0.288 | 0.199 | – | – | – | – | 0.829 | 0.751 | 0.819 | – | – | – | 1.17 | 1.28 | 1.26 | 0.952 | – | – | –
8 | LC-2-ad | 0.422 | 0.531 | 0.115 | 0.578 | 0.549 | 0.491 | 0.45 | 0.709 | 0.701 | 0.724 | 0.898 | 0.904 | 0.933 | 0.826 | 0.931 | 0.991 | 0.936 | 0.535 | 0.486 | 0.476
9 | LCLC-97TM1 | 0.196 | 0.169 | 0.15 | 0.214 | 0.308 | 0.199 | 0.221 | 0.588 | 0.386 | 0.428 | 0.234 | 0.202 | 0.18 | 1.01 | 0.961 | 1.01 | 0.884 | 0.215 | 0.235 | 0.183
10 | LCLC-103H | 0.536 | 0.678 | 0.512 | 0.51 | 0.48 | 0.459 | 0.493 | 0.819 | 0.753 | 0.773 | 0.699 | 0.683 | 0.659 | 0.979 | 0.865 | 0.83 | 0.676 | 0.479 | 0.502 | 0.477
11 | NCI-H522 | – | – | – | 1.04 | 1.06 | 0.825 | 1.04 | 0.655 | 0.643 | 0.615 | 0.675 | 0.62 | 0.681 | – | – | – | – | 0.847 | 0.893 | 1.03
12 | NCI-H596 | 0.342 | 0.388 | 0.366 | – | – | – | – | 0.643 | 0.6 | 0.572 | 0.739 | 0.804 | 0.755 | 0.795 | 0.88 | 0.957 | 0.823 | – | – | –
13 | NCI-H1299 | 0.629 | 0.688 | 0.529 | – | – | – | – | 0.955 | 0.881 | 0.904 | – | – | – | 1.17 | 1.09 | 0.981 | 0.971 | – | – | –
14 | NCI-H1563 | 0.608 | 0.711 | 0.712 | – | – | – | – | – | – | – | – | – | – | 0.886 | 0.961 | 0.886 | 0.905 | – | – | –
15 | NCI-H1623 | – | – | – | – | – | – | – | – | – | – | – | – | – | 0.866 | 1.01 | 0.725 | 0.986 | – | – | –
16 | NCI-H1648 | – | – | – | 0.293 | – | 0.274 | 0.239 | 0.655 | 0.59 | 0.691 | 0.383 | 0.441 | 0.43 | – | – | – | – | 0.257 | 0.262 | 0.25
17 | NCI-H1703 | 0.244 | 0.233 | 0.204 | – | – | – | – | – | 0.359 | 0.291 | – | – | – | 0.404 | 0.378 | 0.346 | 0.342 | – | – | –
18 | NCI-H1792 | 0.257 | 0.289 | 0.227 | 0.96 | 0.997 | – | 0.678 | 0.599 | 0.402 | 0.282 | 0.365 | 0.364 | 0.449 | – | – | – | – | 0.684 | 0.622 | 0.611
19 | NCI-H2342 | – | – | – | 0.547 | 0.543 | 0.511 | 0.53 | 0.462 | 0.456 | 0.472 | 0.858 | 1.1 | 1.01 | 1.02 | 1.05 | 0.942 | 1.07 | 0.531 | 0.606 | 0.593
20 | SW 900 | – | – | – | 0.593 | 0.562 | 0.593 | 0.567 | 0.95 | 0.887 | 0.695 | 0.748 | 0.802 | 0.798 | 0.831 | 0.905 | 1.37 | 0.878 | 0.547 | 0.514 | 0.47
